Reference: ChEMBL document CHEMBL1201862, “PubChem BioAssay data set” (2004)
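Five concentrations, 48 hours, 96-well plates. GI50 is the concentration that inhibits growth by half.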 The source made the active and inactive calls. Cut-off read from the data, not from the text of the source: active = GI50 up to about 1.1 µM and inactive = higher.

Assays:
Experiment in all cases: NCI anticancer screen, dose series, 48 h
Malme-3M = test system: Malme-3M
NCI-H23 = test system: NCI-H23
TK-10 = test system: TK-10
HCT-116 = test system: HCT-116
SN12C = test system: SN12C
A549 = test system: A549
KM12 = test system: KM12
SK-OV-3 = test system: SK-OV-3
SF-268 = test system: SF-268
NCI/ADR-RES = test system: NCI/ADR-RES
HT-29 = test system: HT-29
UACC-257 = test system: UACC-257
HOP-92 = test system: HOP-92
SK-MEL-5 = test system: SK-MEL-5
HCT-15 = test system: HCT-15
OVCAR-3 = test system: OVCAR-3
HOP-62 = test system: HOP-62
NCI-H226 = test system: NCI-H226
OVCAR-5 = test system: OVCAR-5
NCI-H522 = test system: NCI-H522

| SMILES | GI50 (Malme-3M) | GI50 (NCI-H23) | GI50 (TK-10) | GI50 (HCT-116) | GI50 (SN12C) | GI50 (A549) | GI50 (KM12) | GI50 (SK-OV-3) | GI50 (SF-268) | GI50 (NCI/ADR-RES) | GI50 (HT-29) | GI50 (UACC-257) | GI50 (HOP-92) | GI50 (SK-MEL-5) | GI50 (HCT-15) | GI50 (OVCAR-3) | GI50 (HOP-62) | GI50 (NCI-H226) | GI50 (OVCAR-5) | GI50 (NCI-H522) |
| --- | --- | --- | --- | --- | --- | --- | --- | --- | --- | --- | --- | --- | --- | --- | --- | --- | --- | --- | --- | --- |
| Cc1ccc(O)c(Cc2nc3ccccc3nc2-c2cccc(Cl)c2)c1 | > 100 µM (inactive) | 69.3 µM (inactive) | 88.9 µM (inactive) | 42.9 µM (inactive) | 55.2 µM (inactive) | 43.9 µM (inactive) | 59.6 µM (inactive) | > 100 µM (inactive) | 97.5 µM (inactive) | 44.1 µM (inactive) | 44.3 µM (inactive) | 74.6 µM (inactive) | 12.5 µM (inactive) | 40.2 µM (inactive) | 15.4 µM | 68.9 µM (inactive) | > 100 µM (inactive) | 44.9 µM (inactive) | > 100 µM (inactive) | 20.3 µM (inactive) |
| C=C(Cl)C(Cl)(CBr)CCC(Cl)C(C)(C)Cl (stereo not given) | 7.24 µM (inactive) | 8.89 µM (inactive) | 1.14 µM (inactive) | 0.638 µM (active) | 7.38 µM (inactive) | 2.96 µM (inactive) | 0.375 µM (active) | 25.8 µM (inactive) | 1.08 µM (active) | 3.01 µM (inactive) | 0.331 µM (active) | 1.57 µM (inactive) | 1.16 µM (inactive) | 10.6 µM (inactive) | 3.57 µM | 1.61 µM (inactive) | 1.11 µM (active) | 22.2 µM (inactive) | 2.83 µM (inactive) | 8.2 µM (inactive) |
| CC(C)(C)OC(=O)NCCCCCCC(=O)Cc1ccccc1 | > 100 µM (inactive) | > 100 µM (inactive) | > 100 µM (inactive) | 84.3 µM (inactive) | > 100 µM (inactive) | > 100 µM (inactive) | > 100 µM (inactive) | > 100 µM (inactive) | > 100 µM (inactive) | > 100 µM (inactive) | > 100 µM (inactive) | > 100 µM (inactive) | > 100 µM (inactive) | 60.8 µM (inactive) | > 100 µM | > 100 µM (inactive) | > 100 µM (inactive) | > 100 µM (inactive) | > 100 µM (inactive) | > 100 µM (inactive) |
| COc1ccc(C2C3=C(COC3=O)Oc3cc4c(cc32)OCO4)cc1OC (stereo not given) | 0.682 µM (active) | 3.94 µM (inactive) | 12.1 µM (inactive) | 0.465 µM (active) | 5.26 µM (inactive) | 1.27 µM (inactive) | 0.301 µM (active) | 0.75 µM (active) | 6.17 µM (inactive) | 0.33 µM (active) | 0.395 µM (active) | 6.87 µM (inactive) | 39.4 µM (inactive) | 0.489 µM (active) | 0.397 µM | 1.38 µM (inactive) | 1.44 µM (inactive) | 4.65 µM (inactive) | 8.97 µM (inactive) | 0.437 µM (active) |
| COc1cccc(/C=N/NC(=O)CSCC(=O)N/N=C/c2cccc(OC)c2OC)c1OC | > 100 µM (inactive) | > 100 µM (inactive) | > 100 µM (inactive) | > 100 µM (inactive) | > 100 µM (inactive) | > 100 µM (inactive) | > 100 µM (inactive) | > 100 µM (inactive) | > 100 µM (inactive) | > 100 µM (inactive) | > 100 µM (inactive) | > 100 µM (inactive) | > 100 µM (inactive) | 58.3 µM (inactive) | > 100 µM | > 100 µM (inactive) | > 100 µM (inactive) | > 100 µM (inactive) | > 100 µM (inactive) | > 100 µM (inactive) |
| Nc1ccn(C=C=CCO)c(=O)n1 | > 100 µM (inactive) | > 100 µM (inactive) | > 100 µM (inactive) | > 100 µM (inactive) | > 100 µM (inactive) | > 100 µM (inactive) | > 100 µM (inactive) | > 100 µM (inactive) | > 100 µM (inactive) | > 100 µM (inactive) | > 100 µM (inactive) | > 100 µM (inactive) | > 66.4 µM (inactive) | > 100 µM (inactive) | > 100 µM | > 100 µM (inactive) | > 100 µM (inactive) | > 100 µM (inactive) | > 100 µM (inactive) | > 77.3 µM (inactive) |
| C(=C\c1cccc(/C=C/c2ccccn2)n1)/c1ccccn1 | 17.3 µM (inactive) | 66.5 µM (inactive) | > 100 µM (inactive) | 68.9 µM (inactive) | 60.7 µM (inactive) | > 100 µM (inactive) | 46.8 µM (inactive) | > 100 µM (inactive) | 20.2 µM (inactive) | 39.2 µM (inactive) | 56.8 µM (inactive) | > 100 µM (inactive) | > 100 µM (inactive) | 48.4 µM (inactive) | > 100 µM | 79.3 µM (inactive) | > 100 µM (inactive) | > 100 µM (inactive) | > 100 µM (inactive) | 13.4 µM (inactive) |
| CC(=O)/C(C)=N/NC(=O)c1ccccc1O | > 10 µM (inactive) | > 10 µM (inactive) | > 10 µM (inactive) | > 10 µM (inactive) | > 10 µM (inactive) | > 10 µM (inactive) | > 10 µM (inactive) | > 10 µM (inactive) | > 10 µM (inactive) | > 100 µM (inactive) | > 10 µM (inactive) | > 10 µM (inactive) | > 10 µM (inactive) | 95.1 µM (inactive) | 97.5 µM | 69.5 µM (inactive) | > 10 µM (inactive) | > 10 µM (inactive) | > 10 µM (inactive) | > 100 µM (inactive) |
| CC(=O)OC1COC(n2nc(/C=C/c3ccc(Cl)cc3)c(=O)n(/N=C/c3ccccc3)c2=S)C(OC(C)=O)C1OC(C)=O (stereo not given) | > 100 µM (inactive) | > 100 µM (inactive) | > 100 µM (inactive) | > 100 µM (inactive) | > 100 µM (inactive) | > 100 µM (inactive) | > 100 µM (inactive) | > 100 µM (inactive) | > 100 µM (inactive) | > 100 µM (inactive) | > 100 µM (inactive) | > 100 µM (inactive) | > 100 µM (inactive) | > 100 µM (inactive) | > 100 µM | > 100 µM (inactive) | > 100 µM (inactive) | > 100 µM (inactive) | > 100 µM (inactive) | > 100 µM (inactive) |
| N#CC(NC12CC3CC(CC(C3)C1)C2)c1ccccc1 (stereo not given) | > 100 µM (inactive) | > 100 µM (inactive) | > 100 µM (inactive) | > 100 µM (inactive) | > 100 µM (inactive) | > 100 µM (inactive) | > 100 µM (inactive) | > 100 µM (inactive) | > 100 µM (inactive) | > 100 µM (inactive) | > 100 µM (inactive) | > 100 µM (inactive) | 94.2 µM (inactive) | > 100 µM (inactive) | > 100 µM | > 100 µM (inactive) | > 100 µM (inactive) | > 100 µM (inactive) | > 100 µM (inactive) | > 100 µM (inactive) |
| COc1cccc2c(Nc3ccc(S(=O)(=O)NC(C)=O)cc3)c3ccc([N+](=O)[O-])cc3nc12 | 33.9 µM (inactive) | 35.2 µM (inactive) | 22.4 µM (inactive) | 30.5 µM (inactive) | 57.1 µM (inactive) | 39.4 µM (inactive) | 11 µM (inactive) | > 100 µM (inactive) | 25.1 µM (inactive) | > 57.1 µM (inactive) | 13.8 µM (inactive) | 25.9 µM (inactive) | 26.2 µM (inactive) | 22.7 µM (inactive) | 47 µM | 32.5 µM (inactive) | > 78.2 µM (inactive) | 29.2 µM (inactive) | > 66.5 µM (inactive) | 17.5 µM (inactive) |
| CN1CCN(c2ncc3c(n2)sc2c(=O)n(-c4ccccc4)cnc23)CC1 | > 100 µM (inactive) | > 100 µM (inactive) | > 100 µM (inactive) | > 100 µM (inactive) | > 100 µM (inactive) | > 100 µM (inactive) | > 100 µM (inactive) | > 100 µM (inactive) | > 100 µM (inactive) | > 100 µM (inactive) | > 100 µM (inactive) | > 100 µM (inactive) | > 100 µM (inactive) | > 100 µM (inactive) | > 100 µM | > 100 µM (inactive) | > 100 µM (inactive) | > 100 µM (inactive) | > 100 µM (inactive) | > 100 µM (inactive) |
